Where a name gives a salt, the structure may show the parent alone. Values belong to the molecule of their own block, whether it stands above or below them.
Columns and labels:
[1] = Hygroscopicity test by dynamic vapor sorption (DVS); format: physicochemical; conditions: DVS, 25°C, 0%RH to 95%RH
Protocol: The dynamic vapor sorption (DVS) curve was collected on DVS IntrInsic from SMS (surface measurement systems). The relative humidity at 25°C was corrected using the deliquescence points of LiCl, Mg(NO3)2, and KCl. Table 18 DVS test parameters
The percentage change in sample mass was collected under constant temperature at 25°C as humidity varied from 0%RH to 95%RH.

[2] = Dynamic solubility experiment at 37°C (water, SGF, FaSSIF, FeSSIF); conditions: for S: solubility: solid feed 10 mg/mL; for pH: pH value of the filtrate
Protocol: Rotating mixing was carried out at 37°C at a solid feed concentration of 10 mg/mL (calculated as the compound of Formula I). […] After sampling at each time point, the samples were centrifuged (10000 rpm) and filtered (0.45 µm PTFE filter head), and the HPLC concentration and pH value of the filtrate were measured.
100 mg of NaCl and 50 mg of Triton X-100 were weighed into a 50 mL volumetric flask, and purified water was added to complete dissolution. 816 µL of 1 M hydrochloric acid was added thereto, and the pH was adjusted to 1.8 with 1 M hydrochloric acid or 1 M NaOH solution. Purified water was added to make up to volume.
340 mg of anhydrous NaH2PO4 and 620 mg of NaCl were weighed into a 100 mL volumetric flask. Purified water was added to complete dissolution, followed by addition of 55.44 µL of 50% NaOH solution, and the pH was adjusted to 6.5 using 1M HCl or 1M NaOH solution. Purified water was added to make up to volume. 110 mg of SIF powder was then weighed into a 50 mL volumetric flask, added with the above solution to complete dissolution and make up to volume.
0.82 mL of glacial acetic acid and 1.18 g of NaCl were added to a 100 mL volumetric flask. Purified water was added to complete dissolution, followed by addition of 528 µL of 50% NaOH solution, and the pH was adjusted to 5.0 using 1M HCl or 1M NaOH solution. Purified water was added to make up to volume. 560 mg of SIF powder was then weighed into a 50 mL volumetric flask, added with the above solution to complete dissolution and make up to volume.

[3] = Solid-state stability (XRPD and HPLC after open storage); format: physicochemical; conditions: for Crystal form: XRPD
Protocol: The purity test, dynamic solubility test, and stability test in the assay were measured using an Agilent 1260 high-performance liquid chromatograph, and the salt formation molar ratio of ions was tested by ion chromatography, and the analytical conditions are shown in Table 19 and Table 20. Table 19 High-performance liquid chromatography test conditions

[4] = Heating / variable temperature XRPD (VT-XRPD), crystal form conversion; format: physicochemical
Protocol: The XRPD pattern was collected on an X-ray powder diffraction analyzer produced by PANalytacal, and the scanning parameters are shown in Table 16. Table 16 XRPD test parameters
The free form crystal form B sample was obtained by dissolving the compound of Formula I in MeOH, removing the solvent by rotary evaporation under reduced pressure, and then transferring the resulting gel-like sample for vacuum drying at 50°C. The XRPD and TGA/DSC characterization results are shown in FIGS. 4-6, and the XRPD diffraction peak data of the free form crystal form B are shown in Table 23. […] The TGA weight loss of the free form crystal form B is low, and the free form crystal form B is an anhydrous crystal form.
Combined with the TGA/DSC and ^1H NMR results of the crystal form A of the phosphate salt, the crystal form A of the phosphate salt was a hydrate, which dehydrated under heating conditions and converted to anhydrous crystal form B of the phosphate salt.

[5] = 25°C/60%RH/open, 1 week, listed as Crystal form A ofp-toluenesulfonate salt
[6] = 40°C/75%RH/open, 1 week, listed as Crystal form A ofp-toluenesulfonate salt

hygroscopicity ([1]; listed as crystal form A of the p-toluenesulfonate salt): slightly hygroscopic | S: solubility ([2]; FaSSIF, 1 hour, listed as Crystal form A ofp-toluenesulfonate salt, 60 min): 2780 µg/mL | S: solubility ([2]; FaSSIF, 4 hours, listed as Crystal form A ofp-toluenesulfonate salt, 240 min): 2780 µg/mL | S: solubility ([2]; FaSSIF, 24 hours, listed as Crystal form A ofp-toluenesulfonate salt, 1440 min): 2680 µg/mL | S: solubility ([2]; FeSSIF, 1 hour, listed as Crystal form A ofp-toluenesulfonate salt, 60 min): 4120 µg/mL | S: solubility ([2]; FeSSIF, 4 hours, listed as Crystal form A ofp-toluenesulfonate salt, 240 min): 2510 µg/mL | S: solubility ([2]; FeSSIF, 24 hours, listed as Crystal form A ofp-toluenesulfonate salt, 1440 min): 2300 µg/mL | S: solubility ([2]; H2O, 1 hour, listed as Crystal form A ofp-toluenesulfonate salt, 60 min): 5970 µg/mL | S: solubility ([2]; H2O, 4 hours, listed as Crystal form A ofp-toluenesulfonate salt, 240 min): 6130 µg/mL | S: solubility ([2]; H2O, 24 hours, listed as Crystal form A ofp-toluenesulfonate salt, 1440 min): 5750 µg/mL | S: solubility ([2]; SGF, 1 hour, listed as Crystal form A ofp-toluenesulfonate salt, 60 min): 9410 µg/mL | S: solubility ([2]; SGF, 4 hours, listed as Crystal form A ofp-toluenesulfonate salt, 240 min): 9460 µg/mL | S: solubility ([2]; SGF, 24 hours, listed as Crystal form A ofp-toluenesulfonate salt, 1440 min): 8970 µg/mL | pH ([2]; FaSSIF, 1 hour, listed as Crystal form A ofp-toluenesulfonate salt): 6.0 | pH ([2]; FaSSIF, 4 hours, listed as Crystal form A ofp-toluenesulfonate salt): 6.1 | pH ([2]; FaSSIF, 24 hours, listed as Crystal form A ofp-toluenesulfonate salt): 6.1 | pH ([2]; FeSSIF, 1 hour, listed as Crystal form A ofp-toluenesulfonate salt): 4.9 | pH ([2]; FeSSIF, 4 hours, listed as Crystal form A ofp-toluenesulfonate salt): 4.9 | pH ([2]; FeSSIF, 24 hours, listed as Crystal form A ofp-toluenesulfonate salt): 4.9 | pH ([2]; H2O, 1 hour, listed as Crystal form A ofp-toluenesulfonate salt): 5.3 | pH ([2]; H2O, 4 hours, listed as Crystal form A ofp-toluenesulfonate salt): 5.4 | pH ([2]; H2O, 24 hours, listed as Crystal form A ofp-toluenesulfonate salt): 5.2 | pH ([2]; SGF, 1 hour, listed as Crystal form A ofp-toluenesulfonate salt): 3.3 | pH ([2]; SGF, 4 hours, listed as Crystal form A ofp-toluenesulfonate salt): 3.3 | pH ([2]; SGF, 24 hours, listed as Crystal form A ofp-toluenesulfonate salt): 3.3 | Purity (area%) [3, 5]: 97.38 area% | Relative to initial (%) [3, 5]: 99.7% | Purity (area%) [3, 6]: 97.38 area% | Relative to initial (%) [3, 6]: 99.7% | Purity (area%) ([3]; Initial, listed as Crystal form A ofp-toluenesulfonate salt): 97.67 area%
Structure (SMILES): Cc1cc(OCCN2C[C@H]3COC[C@H]3C2)ccc1-c1ccc(CC(=O)NCc2ccccc2)nc1
Crystal form [3, 5]: Crystal form A of p-toluenesulfonate salt | Crystal form [3, 6]: Crystal form A of p-toluenesulfonate salt

hygroscopicity ([1]; listed as crystal form A of the benzenesulfonate salt): slightly hygroscopic | S: solubility ([2]; FaSSIF, 1 hour, 60 min): 3980 µg/mL | S: solubility ([2]; FaSSIF, 4 hours, 240 min): 3640 µg/mL | S: solubility ([2]; FaSSIF, 24 hours, 1440 min): 3550 µg/mL | S: solubility ([2]; FeSSIF, 1 hour, 60 min): 3150 µg/mL | S: solubility ([2]; FeSSIF, 4 hours, 240 min): 2890 µg/mL | S: solubility ([2]; FeSSIF, 24 hours, 1440 min): 2910 µg/mL | S: solubility ([2]; H2O, 1 hour, 60 min): 8290 µg/mL | S: solubility ([2]; H2O, 4 hours, 240 min): 8390 µg/mL | S: solubility ([2]; H2O, 24 hours, 1440 min): 8120 µg/mL | S: solubility ([2]; SGF, 1 hour, 60 min): 9940 µg/mL | S: solubility ([2]; SGF, 4 hours, 240 min): 9950 µg/mL | S: solubility ([2]; SGF, 24 hours, 1440 min): 9700 µg/mL | pH ([2]; FaSSIF, 1 hour): 6.1 | pH ([2]; FaSSIF, 4 hours): 6.1 | pH ([2]; FaSSIF, 24 hours): 6.1 | pH ([2]; FeSSIF, 1 hour): 4.9 | pH ([2]; FeSSIF, 4 hours): 4.9 | pH ([2]; FeSSIF, 24 hours): 4.9 | pH ([2]; H2O, 1 hour): 5.6 | pH ([2]; H2O, 4 hours): 5.6 | pH ([2]; H2O, 24 hours): 5.6 | pH ([2]; SGF, 1 hour): 3.4 | pH ([2]; SGF, 4 hours): 3.5 | pH ([2]; SGF, 24 hours): 3.5 | Purity (area%) ([3]; 25°C/60%RH/open, 1 week): 97.61 area% | Relative to initial (%) ([3]; 25°C/60%RH/open, 1 week): 99.8% | Crystal form ([3]; 25°C/60%RH/open, 1 week): Crystal form A of benzenesulfonate salt | Purity (area%) ([3]; 40°C/75%RH/open, 1 week): 97.61 area% | Relative to initial (%) ([3]; 40°C/75%RH/open, 1 week): 99.8% | Crystal form ([3]; 40°C/75%RH/open, 1 week): Crystal form A of benzenesulfonate salt | Purity (area%) ([3]; Initial): 97.78 area%
Structure (SMILES): Cc1cc(OCCN2C[C@H]3COC[C@H]3C2)ccc1-c1ccc(CC(=O)NCc2ccccc2)nc1 [Crystal form A of benzenesulfonate salt]

hygroscopicity ([1]; listed as crystal form A of the phosphate salt): rapidly dehydrates below 10% RH | S: solubility ([2]; FaSSIF, 1 hour, 60 min): 6630 µg/mL | S: solubility ([2]; FaSSIF, 4 hours, 240 min): 6320 µg/mL | S: solubility ([2]; FaSSIF, 24 hours, 1440 min): 6140 µg/mL | S: solubility ([2]; FeSSIF, 1 hour, 60 min): 5130 µg/mL | S: solubility ([2]; FeSSIF, 4 hours, 240 min): 4120 µg/mL | S: solubility ([2]; FeSSIF, 24 hours, 1440 min): 3730 µg/mL | S: solubility ([2]; H2O, 1 hour, 60 min): 9830 µg/mL | S: solubility ([2]; H2O, 4 hours, 240 min): 9650 µg/mL | S: solubility ([2]; H2O, 24 hours, 1440 min): 9120 µg/mL | S: solubility ([2]; SGF, 1 hour, 60 min): 9140 µg/mL | S: solubility ([2]; SGF, 4 hours, 240 min): 9670 µg/mL | S: solubility ([2]; SGF, 24 hours, 1440 min): 9070 µg/mL | pH ([2]; FaSSIF, 1 hour): 5.9 | pH ([2]; FaSSIF, 4 hours): 5.9 | pH ([2]; FaSSIF, 24 hours): 5.9 | pH ([2]; FeSSIF, 1 hour): 4.9 | pH ([2]; FeSSIF, 4 hours): 4.9 | pH ([2]; FeSSIF, 24 hours): 4.9 | pH ([2]; H2O, 1 hour): 5.3 | pH ([2]; H2O, 4 hours): 5.4 | pH ([2]; H2O, 24 hours): 5.3 | pH ([2]; SGF, 1 hour): 3.4 | pH ([2]; SGF, 4 hours): 3.4 | pH ([2]; SGF, 24 hours): 3.4 | crystal form after heating ([4]; heating to 150°C under nitrogen, cooling to 30°C, exposing to air): conversion to free form crystal form B | crystal form after purging ([4]; purging under N2 for 20 min): remained unchanged | Purity (area%) ([3]; 25°C/60%RH/open, 1 week): 97.84 area% | Relative to initial (%) ([3]; 25°C/60%RH/open, 1 week): 100.2% | Crystal form ([3]; 25°C/60%RH/open, 1 week): Crystal form A of phosphate salt | Purity (area%) ([3]; 40°C/75%RH/open, 1 week): 97.55 area% | Relative to initial (%) ([3]; 40°C/75%RH/open, 1 week): 99.9% | Crystal form ([3]; 40°C/75%RH/open, 1 week): Crystal form A of phosphate salt | Purity (area%) ([3]; Initial): 97.62 area%
Structure (SMILES): Cc1cc(OCCN2C[C@H]3COC[C@H]3C2)ccc1-c1ccc(CC(=O)NCc2ccccc2)nc1 [Crystal form A of phosphate salt]

hygroscopicity ([1]; listed as crystal form B of the oxalate salt): slightly hygroscopic | S: solubility ([2]; FaSSIF, 1 hour, 60 min): 9270 µg/mL | S: solubility ([2]; FaSSIF, 4 hours, 240 min): 8890 µg/mL | S: solubility ([2]; FaSSIF, 24 hours, 1440 min): 8470 µg/mL | S: solubility ([2]; FeSSIF, 1 hour, 60 min): 3800 µg/mL | S: solubility ([2]; FeSSIF, 4 hours, 240 min): 3660 µg/mL | S: solubility ([2]; FeSSIF, 24 hours, 1440 min): 3480 µg/mL | S: solubility ([2]; H2O, 1 hour, 60 min): 9650 µg/mL | S: solubility ([2]; H2O, 4 hours, 240 min): 9650 µg/mL | S: solubility ([2]; H2O, 24 hours, 1440 min): 9360 µg/mL | S: solubility ([2]; SGF, 1 hour, 60 min): 9990 µg/mL | S: solubility ([2]; SGF, 4 hours, 240 min): 9790 µg/mL | S: solubility ([2]; SGF, 24 hours, 1440 min): 9610 µg/mL | pH ([2]; FaSSIF, 1 hour): 4.2 | pH ([2]; FaSSIF, 4 hours): 4.2 | pH ([2]; FaSSIF, 24 hours): 4.2 | pH ([2]; FeSSIF, 1 hour): 4.7 | pH ([2]; H2O, 1 hour): 3.8 | pH ([2]; H2O, 4 hours): 3.8 | pH ([2]; H2O, 24 hours): 3.9 | pH ([2]; SGF, 1 hour): 3.1 | pH ([2]; SGF, 4 hours): 3.1 | pH ([2]; SGF, 24 hours): 3.1 | Purity (area%) ([3]; 25°C/60%RH/open, 1 week): 97.49 area% | Relative to initial (%) ([3]; 25°C/60%RH/open, 1 week): 100.0% | Crystal form ([3]; 25°C/60%RH/open, 1 week): Crystal form B of oxalate salt | Purity (area%) ([3]; 40°C/75%RH/open, 1 week): 97.52 area% | Relative to initial (%) ([3]; 40°C/75%RH/open, 1 week): 100.1% | Crystal form ([3]; 40°C/75%RH/open, 1 week): Crystal form B of oxalate salt | Purity (area%) ([3]; Initial): 97.47 area%
Structure (SMILES): Cc1cc(OCCN2C[C@H]3COC[C@H]3C2)ccc1-c1ccc(CC(=O)NCc2ccccc2)nc1 [Crystal form B of oxalate salt]

— patent EP4745130A1, “CRYSTAL FORMS OF TUBULIN-SRC DUAL-TARGETING INHIBITOR, PREPARATION METHOD THEREFOR AND USE THEREOF” (Hubei Bio-Pharmaceutical Industrial Technological Institute …, priority 2023, dated 2025)
